Data on 6 compounds can be found in patent publication US20180360972A1, “THERAPEUTIC COMPOUNDS” (REGENTS OF THE UNIVERSITY OF MINNESOTA, priority 2017, published 2018).

Square brackets hold non-standard residues; d marks the D form. Peptide text beside a SMILES is read from it. d2Nal = N[C@H](Cc1ccc2ccccc2c1)C(=O)O

The target of experiment [1] is T1, hMC4R (Homo sapiens, UniProt P32245).
T1 construct: Flag; expressed in transfected cells
Nature of the experiment: AlphaScreen cAMP functional bioassay, hMC4R. It is filed as cell-based. On the procedure:
Upon agonist stimulation, melanocortin receptors are known to signal through a Gαs-protein mediated signaling pathway that results in intracellular cAMP accumulation.
Stable populations were selected for using G418 selection (0.7-1.0 mg/mL) and used in bioassays unless indicated otherwise. In vitro experimental ligands were dissolved to a 10^−2 M stock in DMSO and stored at −20° C. Subsequent dilutions were performed in each assay's specific buffer to achieve the final concentration in the well. The ligands were assayed as TFA salts.
AlphaScreen cAMP Functional Bioassay
The AlphaScreen® assay was performed as described by manufacturer.
Cells were removed from plates using Gibco® Versene solution and pelleted by centrifugation (Sorvall Super T21 high speed centrifuge, swinging bucket rotor) at 800 rpm for five minutes. […] A 10 μL aliquot of cell suspension was counted manually using a hemocytometer after addition of Trypan blue dye (BioRad). Cells were again pelleted by centrifugation, and DPBS was gently aspirated. The pelleted cells were then resuspended in a solution of freshly made stimulation buffer (Hank's Balanced Salt Solution [HBSS 10× [−] sodium bicarbonate] and [−] phenol red, Gibco®], 0.5 mM isobutylmethylxanthine [IBMX], 5 mM HEPES buffer solution [1M, Gibco®], 0.1% bovine serum albumin [BSA] in Milli-Q water, pH=7.4) and anti-cAMP acceptor beads (1.0 unit per well, AlphaScreen®). […] The cells were then stimulated with ligand diluted in stimulation buffer to achieve their final concentrations in the well ranging from 10^−13 to 10^−4 M. The stimulated plates were incubated in a dark laboratory drawer at room temperature for two hours.
Meanwhile, a biotinylated cAMP/streptavidin donor bead working solution was made by adding biotinylated cAMP (1 Unit/well, AlphaScreen®) and streptavidin donor beads (1 Unit/well, AlphaScreen®) to a lysis buffer (10% Tween-20, 5 mM HEPES buffer solution [1M, Gibco®], 0.1% bovine serum albumin [BSA] in Milli-Q water, pH=7.4). After the two hour stimulation, the biotinylated cAMP/Streptavidin donor bead working solution was added to each well under green light and mixed well by pipetting up and down. The cells were incubated for another two hours at room temperature in a dark drawer at room temperature. The plate was then read on an EnSpire™ Alpha plate reader using a pre-normalized assay protocol set by the manufacturer. Assays were performed with duplicate data points on each plate and repeated in at least three independent experiments.
Dose response curves were analyzed using the PRISM program (v4.0; GraphPad Inc.).
Target sequence in this assay (P32245 whole entry): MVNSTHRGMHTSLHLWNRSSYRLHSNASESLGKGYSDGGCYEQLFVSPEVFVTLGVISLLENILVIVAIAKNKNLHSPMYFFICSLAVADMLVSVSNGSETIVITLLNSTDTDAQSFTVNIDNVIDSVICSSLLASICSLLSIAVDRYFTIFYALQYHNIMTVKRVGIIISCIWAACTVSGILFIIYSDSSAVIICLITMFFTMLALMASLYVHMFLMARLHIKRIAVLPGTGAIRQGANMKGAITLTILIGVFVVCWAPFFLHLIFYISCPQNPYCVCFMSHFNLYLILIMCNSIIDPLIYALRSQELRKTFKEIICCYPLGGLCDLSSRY
A general note: Alpha assays give light when donor and acceptor beads are brought close together.

Experiment [2] has as its target T1, hMC4R. Nature of the experiment: PRESTO-Tango β-arrestin recruitment assay. It is filed as cell-based. Particulars: for β-arrestin response compared to maximal efficacy of NDP-MSH: at 10 μM; for fold increase in β-arrestin recruitment compared to CJL-1-14: vs tetrapeptide CJL-1-14. The method, then: The PRESTO-Tango technology is an open-source resource that has been utilized to identify ligands for orphan receptors based on β-arrestin recruitment.
The plasmids and assay technology was kindly provided by the Bryan Roth laboratory (University of North Carolina at Chapel Hill) and are now available through ADDGENE (Kit # 1000000068).
The first day of the assay, HTLA cells were plated at approximately 1×10^6 cells per 10 cm plate and grown to 20-40% confluency. […] The third day, cells were removed from 10 cm plates using Gibco® Versene solution and pelleted by centrifugation (Sorvall Super T21 high speed centrifuge, swinging bucket rotor) at 800 rpm for five minutes at room temperature. Cells were manually counted on a hemocytometer and resuspended in 1% dialyzed FBS and 1% penicillin/streptomycin in DMEM to a final concentration of 400,000 cells/mL. […] Stimulated cells were incubated for 18 hours in 5% CO2 at 37° C. On the fifth day, the assay buffer and cell medium was removed by aspiration. […] After incubation, luminescence was then read on an EnSpire™ Alpha plate reader using a pre-normalized assay protocol for luminescence set by the manufacturer. Dose response curves were analyzed using the PRISM program (v4.0; GraphPad Inc.).
Target sequence in this assay (P32245 whole entry): as above
In general terms: Activated receptors often draw arrestin, which recruitment assays turn into a signal.

Experiment [3] deals with mMC4R-NanoLuc and mMC4R-HaloTag homodimer (Mus musculus, UniProt P56450). Nature of the experiment: NanoBRET ligand-dependent modulation of BRET signal. As to conditions: 10^−5, 10^−7 and 10^−9 M vs assay buffer. (In general: Bioluminescence resonance energy transfer reports proximity on the nanometre scale.)
Experimental: On the first day, cells were plated into 6 well plates in the morning. In the afternoon of the same day, cells were transiently transfected with mMC4R-NanoLuc® fusion protein and the MC4R-HaloTag® fusion protein by adding FuGene6 Transfection (8 μL/well, Promega), DNA (2 μg/well) in OptiMem medium (Invitrogen) at a total volume of 100 μL/well. […] Cells were incubated with transfection reagent overnight at 5% CO2 at 37° C.
This provides the background signal and was subtracted from the final experimental signal. Plates were then developed 48 to 60 hours after transfection. Two hours before the plates were developed, 10 μL of a 10× aliquot of the ligand diluted in assay buffer was added to each well to yield the final in well concentration (10^−5, 10^−7, or 10^−9M) of each compound. For the assay buffer control, 10 μL of assay buffer was added instead of compound. […] The standard error of the mean (SEM) was derived from at least three independent experiments.
Experiment [4] deals with T1, hMC4R. Briefly: cAMP Signaling | EC50 (nM). The method, then:
Table printed on a drawing sheet, Figure 20
The cAMP signaling potency was determined by AlphaScreen™ assays. […] The reported errors are the standard error of the mean (SEM) determined from at least three independent experiments. Changes less than 3-fold were considered to be within the inherent experimental assay error.
Target sequence in this assay (P32245 whole entry, looked up): as the sequence (P32245 whole entry) above

For the next experiment, the target named is mMC5R (Mus musculus, UniProt P41149). Briefly: mMC5R | Agonist EC50 (nM). On the procedure:
Table printed on a drawing sheet, Figure 23
The cAMP signaling potency was determined by AlphaScreen® assays. The reported errors are the standard error of the mean (SEM) determined from at least three independent experiments. Changes less than 3-fold were considered to be within the inherent experimental assay error. NS means compound was not soluble in bioassay compatible solvent.

Experiment [5] addresses T1, hMC4R. Nature of the experiment: β-Arrestin Recruitment | EC50 (nM).
Target sequence in this assay (P32245 whole entry, looked up): as the sequence (P32245 whole entry) above

mMC4R-NanoLuc and mMC4R-HaloTag homodimer, sequence (P56450 whole entry): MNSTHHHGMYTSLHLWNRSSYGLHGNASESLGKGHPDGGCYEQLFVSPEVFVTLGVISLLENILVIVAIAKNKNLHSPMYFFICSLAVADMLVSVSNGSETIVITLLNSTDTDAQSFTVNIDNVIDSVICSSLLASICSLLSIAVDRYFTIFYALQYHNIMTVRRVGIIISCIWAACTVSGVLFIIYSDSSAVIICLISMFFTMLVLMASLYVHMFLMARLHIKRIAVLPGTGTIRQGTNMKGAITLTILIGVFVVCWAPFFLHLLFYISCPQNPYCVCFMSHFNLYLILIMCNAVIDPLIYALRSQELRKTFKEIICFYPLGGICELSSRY
mMC4R-NanoLuc and mMC4R-HaloTag homodimer, sequence (P56450 whole entry): as above
mMC5R, sequence (P41149 whole entry, looked up): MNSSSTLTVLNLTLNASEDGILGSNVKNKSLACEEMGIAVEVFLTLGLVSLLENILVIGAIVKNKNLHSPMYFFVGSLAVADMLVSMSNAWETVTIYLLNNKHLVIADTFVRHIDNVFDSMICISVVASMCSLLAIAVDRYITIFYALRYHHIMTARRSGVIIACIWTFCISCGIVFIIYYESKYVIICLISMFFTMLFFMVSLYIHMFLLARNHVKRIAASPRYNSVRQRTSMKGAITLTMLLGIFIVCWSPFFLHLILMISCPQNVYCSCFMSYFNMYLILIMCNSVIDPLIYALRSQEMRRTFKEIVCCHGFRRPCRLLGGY

`CC(=O)N[C@@H](Cc1c[nH]cn1)C(=O)N[C@H](Cc1ccc2ccccc2c1)C(=O)N[C@@H](CCCNC(=N)N)C(=O)N[C@@H](Cc1c[nH]c2ccccc12)C(=O)NCCCOCCOCCOCCCNC(=O)COCC(=O)N[C@@H](Cc1c[nH]cn1)C(=O)N[C@H](Cc1ccc2ccccc2c1)C(=O)N[C@@H](CCCNC(=N)N)C(=O)N[C@@H](Cc1c[nH]c2ccccc12)C(N)=O` [CJL-1-140]: at hMC4R [1] (at 10 μM), the “cAMP accumulation of that seen with NDP-MSH” value came out at 70%. Further, on hMC4R [2] (relative to NDP-MSH control, up to 10 μM), the “β-arrestin recruitment efficacy (in words)” value is recorded as “equal or lower β-arrestin recruitment”. In experiment [3], the “change in BRET signal (in words)” value was “no significant changes in BRET signal”.
As for `CC(=O)N[C@@H](Cc1c[nH]cn1)C(=O)N[C@H](Cc1ccc2ccccc2c1)C(=O)N[C@@H](CCCNC(=N)N)C(=O)N[C@@H](Cc1c[nH]c2ccccc12)C(=O)N1CCC[C@H]1C(=O)NCC(=O)N1CCC[C@H]1C(=O)NCC(=O)N1CCC[C@H]1C(=O)NCC(=O)N1CCC[C@H]1C(=O)NCC(=O)N1CCC[C@H]1C(=O)NCC(=O)N1CCC[C@H]1C(=O)NCC(=O)N[C@@H](Cc1c[nH]cn1)C(=O)N[C@H](Cc1ccccc1)C(=O)N[C@@H](CCCNC(=N)N)C(=O)N[C@@H](Cc1c[nH]c2ccccc12)C(N)=O` [CJL-1-63, Ac-His-DNal(2′)-Arg-Trp-(Pro-Gly)6-His-DPhe-Arg-Trp-NH2] (Ac-H[d2Nal]RWPGPGPGPGPGPGH[dF]RW-NH2), the EC50 at hMC4R [4] was found to be 1.9 ± 0.2 nM. The “cAMP agonist potency (in words)” value on hMC4R [1] (HEK293 cells stably expressing hMC4R) is given as “single digit nanomolar agonists”. In addition, the “β-arrestin response compared to maximal efficacy of NDP-MSH” value at hMC4R [2] is 55%.
`CC(=O)N[C@@H](Cc1c[nH]cn1)C(=O)N[C@H](Cc1ccccc1)C(=O)N[C@@H](CCCNC(=N)N)C(=O)N[C@@H](Cc1c[nH]c2ccccc12)C(N)=O` [CJL-1-14, Ac-His-DPhe-Arg-Trp-NH2]: at mMC5R, the EC50 was 9.8 ± 2.7 nM.
With `CC(=O)N[C@@H](Cc1c[nH]cn1)C(=O)N[C@H](Cc1ccccc1)C(=O)N[C@@H](CCCNC(=N)N)C(=O)N[C@@H](Cc1c[nH]c2ccccc12)C(=O)NCCCOCCOCCOCCCNC(=O)COCC(N)=O` [CJL-5-35-4, reference compound], the “fold increase in cAMP potency compared to CJL-1-14” value at hMC4R [1] (vs monovalent tetrapeptide CJL-1-14) worked out at 3 fold. In addition, at hMC4R [2], the “fold increase in β-arrestin recruitment compared to CJL-1-14” value amounted to 5 fold.
As to `CC(=O)N[C@@H](Cc1c[nH]cn1)C(=O)N[C@H](Cc1ccc2ccccc2c1)C(=O)N[C@@H](CCCNC(=N)N)C(=O)N[C@@H](Cc1c[nH]c2ccccc12)C(N)=O` [CJL-1-80, Ac-His-DNal(2′)-Arg-Trp-NH2], at hMC4R [2], the “β-arrestin response compared to maximal efficacy of NDP-MSH” value stood at 30%. In addition, the “change in BRET signal (in words)” value in experiment [3] is “no significant changes in BRET signal”.
`N=C(N)NCCC[C@H](NC(=O)[C@@H](Cc1ccccc1)NC(=O)[C@H](Cc1c[nH]cn1)NC(=O)COCC(=O)NCCCOCCOCCOCCCN)C(=O)N[C@@H](Cc1c[nH]c2ccccc12)C(N)=O` [CJL-1-116]: the EC50 at hMC4R [5] was found to be 140 ± 70 nM; at hMC4R [4], 2 ± 0.3 nM. In addition, on hMC4R [2], the “fold increase in β-arrestin recruitment compared to CJL-1-14” value is < 3 fold.

One may read the EC50 as the concentration giving half of the maximal effect. A lower EC50 goes with greater potency.
